Experimental data taken from patent US8653134B2, “Hydroxyphenol derivatives, processes for the preparation thereof, pharmaceutical compositions them, and therapeutic uses thereof” (Merck Patent GmbH, priority 2005, dated 2014).

Legend:
[1] = molecular target: T1, chimeric protein PPARγ-Gal4 (Homo sapiens, UniProt P37231); assay: PPARγ-Gal4 transactivation test (luciferase reporter) in cotransfected CV-1 cells; type: cell-based
T1 construct: expressed in transfected cells; host or cells: CV-1 cells (monkey kidney cells)
T1 sequence (P37231 238-503 limits assumed): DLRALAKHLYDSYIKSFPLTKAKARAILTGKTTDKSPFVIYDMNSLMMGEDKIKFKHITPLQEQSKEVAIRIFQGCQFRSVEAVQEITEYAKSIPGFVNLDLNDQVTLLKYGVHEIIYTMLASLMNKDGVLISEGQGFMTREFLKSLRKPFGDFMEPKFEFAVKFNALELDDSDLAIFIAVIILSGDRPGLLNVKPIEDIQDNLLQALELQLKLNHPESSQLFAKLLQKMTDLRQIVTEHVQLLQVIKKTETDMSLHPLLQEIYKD
Experimental: The measurement of the PPAR activation was performed according to a technique described by Lehmann et al. (J. Biol. Chem., 270, (1995), 12953-12956). CV-1 cells (monkey kidney cells) are cotransfected with an expression vector for the chimeric protein PPARγ-Gal4 and with a “reporter” plasmid that allows expression of the luciferase gene placed under the control of a promoter comprising Gal4 response elements. The cells are seeded in 96-well microplates and cotransfected using a commercial reagent with the reporter plasmid (pG5-tk-pGL3) and the expression vector for the chimeric protein (PPARγ-Gal4). After incubation for 4 hours, whole culture medium (comprising 10% foetal calf serum) is added to the wells. After 24 hours, the medium is removed and replaced with whole medium comprising the test products. The products are left in contact with the cells for 18 hours. The cells are then lysed and the luciferase activity is measured using a luminometer. A PPARγ activation factor can then be calculated by means of the activation of the expression of the reporter gene induced by the product (relative to the control cells that have received no product). In the absence of the PPARγ ligand binding domain (vector expressing Gal4 alone), the luciferase activity measured in the presence of an agonist is zero. The transactivation test using the expression of a chimeric protein Gal-4-PPARγ makes it possible to determine also whether an agonist functions as a “full” agonist or as a “partial” agonist in this system. An agonist is “partial” in this system if it induces a weaker response, i.e. it has lower efficacy, than rosiglitazone, which is a “full” agonist. In concrete terms, in our system, the transactivation obtained at the plateau with a partial agonist will be between 20% and 50% of the maximum response (efficacy) at the plateau of rosiglitazone.

Row | melting point [°C] | Concentration to reach the maximum stimulation of the PPARγ chimeric protein ([1]; CV-1 cells, Gal-4-PPARγ transactivation) [µM] | Emax ([1]; transactivation at the plateau as % of the maximum response (efficacy) of rosiglitazone, CV-1 cells, read-out: Maximum stimulation of the PPARγ chimeric protein obtained with rosiglitazone) [%] | Activation factor of the chimeric protein PPARγ-Gal4 ([1]; concentration 10 μM, CV-1 cells (monkey kidney cells), 18 hours contact, relative to control cells without agonist (=1)) | Compound
1 | 190 | 12.5 | 28 |  | CCCCCOc1cc2c(cc1OCc1cccc(C(=O)O)c1)C(=O)CC2 [Example 4, 3-(3-Oxo-6-pentyloxyindan-5-yloxymethyl)benzoic Acid]
2 |  |  |  | 9.10 | CCCCCCOc1cc2c(cc1OCCCC(=O)O)C(=O)CC2 [Example 7, 4-(6-hexyloxy-3-oxoindan-5-yloxy)butanoic acid]
